For test [1] the following is noted: cited from earlier work.
For another test, the system named is RM-1 tumours. Briefly: GDEPT on subcutaneous tumours from RM-1 cells pre-transduced in vitro. The class given is in vivo, mouse. The following applies: day 15; Fludarabine alone 600 mg/m^2/day compared with nil treatment. As to the method:
RM-1 cells (3×10^7) were transduced in culture with 1×10^3 or 1×10^2 VP/cell of OAdV220 or mock transduced with virus dilution buffer on day −1. On day 0, 12 mice/group were subcutaneously injected with 2.5×10^5 virus- or mock-transduced cells. Fludarabine was then administered from days 1-5 at 600 mg/m^2/day. Tumour volume and animal survival were monitored three times per week. A line of best fit was generated for each treatment curve and the ability to suppress tumour growth or increase animal survival was determined from the days taken to reach the midpoint of tumour growth or animal survival respectively.

For test [2], the system named is intraprostatic RM-1 tumours. In words: GDEPT ± lipid on intraprostatic RM-1 tumours. It is filed as in vivo, mouse. The note with it: day 18; relative to the equivalent non-fludarabine treated tumours; fludarabine 600 mg/m^2/day ip. As to the method:
In order to mimic clinical prostate cancer in an immunocompetent animal model, on day 1 RM-1 tumours were established in the prostate of C57BL/6 mice by intraprostatic injection of 5×10^3 RM-1 cells (˜50 μl cell suspension) per mouse. On day 4, these mice received an intraprostatic injection of 1×10^10 VP/tumour of OAdV220, either alone or formulated with 10 μM CS87 (see groups below). Fludarabine was then administered ip at 600 mg/m^2/day to appropriate groups from days 5-10. On day 6, pseudometastases were induced in the lungs by intravenous injection of 2.5×10^5 RM-1 cells (˜50 μl cell suspension) per mouse. Due to the limitations of surgery only 30 intraprostate injections can be performed per day. The experiment was therefore set up on 4 different days, although care was taken not to upset the timing of the experiment. The mice were weighed twice weekly, and sacrificed on day 18. Tissues were harvested for analysis (prostate volume, prostate weights).
Treatment groups were as follows:
Group A OAdV220 alone±fludarabine
Group B Nil treatment (storage buffer)±fludarabine
Group C OAdV220 plus […] CS87±fludarabine
Group D 10 μM CS87 alone±fludarabine

For a further test, the system named is PC3 tumours. In words: GDEPT on subcutaneous human PC3 tumours in nude mice. It is filed as in vivo, mouse. As to the method: The ability of the PNP-based GDEPT system to suppress tumour growth in vivo was tested using subcutaneous human PC3 tumours grown in nude mice. Once the tumours were established (see example 1), on day 0 two groups of mice received one intratumoural injection of 1×10^10 VP of OAdV220. Two further groups received virus storage buffer only. Following this treatment all animals in one of the virus groups and all animals in one of the no-virus groups received a daily intraperitoneal (ip) injection of fludarabine (75 mg/m^2/day) for the next five days. Animal weights and tumour volumes were recorded twice weekly. The vector only group was compared to the nil virus, nil prodrug group. The group that received vector plus fludarabine was compared with the group that received fludarabine only. The OAdV220 vector alone caused a 30% reduction in tumour growth. However, the overall tumour growth suppression was increased to 71% when virus was used in conjunction with Fludarabine.
The cut off for response was arbitrarily taken as a tumour volume of 600 mm^3, half the maximum tumour volume (1200 mm^3) allowed before mice had to be culled because of tumour burden. By day 25, 13 of 14 tumours treated with OAdV220 plus fludarabine were in the responder category compared with 6 of 9 that received fludarabine only, and 9 of 12 which received virus only. […]

Consider `Nc1nc(F)nc2nc[nH]c12` [2FA, 2-fluoroadenine], for which the “potency as a growth inhibitor relative to 6 MP” value in test [1] is given as roughly 100 fold.

On to `Nc1nc(F)nc2c1ncn2[C@@H]1O[C@H](CO)[C@@H](O)[C@@H]1O` [Fludarabine, fludarabine], for which the “reduction in mean tumour volume” value with RM-1 tumours is 17%. Besides, in test [2], the “decrease in tumour volume” value is on record as 12% and the “decrease in tumour weight” value was determined as 17%. Moreover, in the test with PC3 tumours (day 25), the “responding tumours (tumour volume below 600 mm^3)” value is reported as 6 of 9. Also, the “responding tumours (tumour volume below 600 mm^3)” value in the test with PC3 tumours (day 53) was 0/5.

These data come from patent US20090104154A1, “Composition and method for killing of tumours” (COMMONWEALTH SCIENTIFIC AND INDUSTRIAL RESEARCH ORGANISATION, priority 2002, published 2009).
